Values after ≈ are worked out from the molar mass of the structure shown. Read-outs that look alike come from different tables or passages of the source.
Experiments:
[1] = IV pharmacokinetics in rats (reported previously); assay type: in vivo, male Sprague Dawley rats; conditions: IV 4.48 mg/kg, rat
Source text: (§1) [formula] • AUCIV Area under the plasma concentration versus time profile from time zero to infinity after IV administration (reported previously: CDCO_FAK_11_031) • t1/2 Elimination half-life • λ2 Terminal elimination rate constant after IV administration • BA Oral bioavailability • AUCoral Area under the plasma concentration versus time profile from time zero to infinity after oral administration • Cmax Maximum plasma concentration observed after oral administration. • Tmax Time to achieve Cmax • Differences in pharmacokinetic parameters (t½, AUC, Cmax, Tmax and BA) between free base and L-tartrate salt were evaluated using an unpaired t-test testing for significance at α=0.05 (GraphPad Prism, version 7.01)

[2] = Oral exposure (pharmacokinetics) in rats; assay type: in vivo, male Sprague Dawley rats; conditions: rat
Procedure: To compare the exposure of the compound of Formula I in male Sprague Dawley rats following oral administration of the free base and L-tartrate salt at a target dose of 20 mg/kg (as free base equivalent).
Further details of the in-life, formulation and bioanalytical procedures together with the data analysis, are described in Appendix 1.
In-Life • The exposure of Formula I was studied in overnight-fasted male Sprague Dawley rats that had access to water ad libitum throughout the pre- and post-dose sampling period, and access to food was re-instated 4 h post-dose. In-life details are provided in Table A1-1. • Samples of arterial blood and total urine were collected up to 48 h post-dose. Arterial blood was collected directly into borosilicate vials (at 4° C.) containing heparin, Complete® (a protease inhibitor cocktail) and potassium fluoride to minimise potential for ex vivo degradation of Formula I in blood/plasma samples. Once collected, blood samples were centrifuged, supernatant plasma was removed and stored frozen (−80° C.) until analysis by LC-MS.
The extraction of the test compound from plasma samples was conducted using protein precipitation with acetonitrile. Both solution and plasma standards were freshly prepared, with each set of standards comprising at least seven different analyte concentrations. Solution standards were diluted from a stock solution (1 mg/mL in DMSO) with 50% acetonitrile in water. Plasma standards were prepared by spiking blank plasma (50 μL) with solution standards (10 μL) and the internal standard, diazepam (10 μL, 5 μg/mL).
Plasma samples were similarly prepared, except that blank acetonitrile (10 μL) was added instead of solution standards. Protein precipitation was carried out by the addition of acetonitrile (120 μL), vortexing (20 s) and centrifugation (10,000 rpm) in a microcentrifuge for 3 minutes. The supernatant was subsequently separated and 3 μL injected directly onto the column for LC/MS analysis using conditions tabulated below. All plasma concentrations are expressed as the non-salt equivalent.
Standard Calculations • Plasma concentration versus time data were analysed using non-compartmental methods (PKSolver Version 2.0). Standard calculations for each pharmacokinetic parameter are listed below.
as §1

[3] = Dynamic/gravimetric vapour sorption (DVS/GVS) hygroscopicity; assay type: physicochemical; conditions: at 90% R.H., 25° C.
Procedure: Approximately 10-20 mg of sample was placed into a mesh vapour sorption balance pan and loaded into the DVS-1 dynamic vapour sorption balance by Surface Measurement Systems. The sample was subjected to a ramping profile from 40-90% relative humidity (RH) at 10% increments, maintaining the sample at each step until a stable weight had been achieved (dm/dt 0.004%, minimum step length 30 minutes, maximum step length 500 minutes) at 25° C. After completion of the sorption cycle, the sample was dried using the same procedure to 0% RH and then a second sorption cycle back to 40% RH. Two cycles were performed. The weight change during the sorption/desorption cycles were plotted, allowing for the hygroscopic nature of the sample to be determined. XRPD analysis was then carried out on any solid retained.
Approximately 10-20 mg of sample was placed into a mesh vapour sorption balance pan and loaded into an IGASorp Moisture Sorption Analyser balance by Hiden Analytical. The sample was subjected to a ramping profile from 40-90% relative humidity (RH) at 10% increments, maintaining the sample at each step until a stable weight had been achieved (98% step completion, minimum step length 30 minutes, maximum step length 60 minutes) at 25° C. After completion of the sorption cycle, the sample was dried using the same procedure to 0% RH, and finally taken back to the starting point of 40% RH. Two cycles were performed. The weight change during the sorption/desorption cycles were plotted, allowing for the hygroscopic nature of the sample to be determined.

[4] = Thermodynamic solubility studies; assay type: physicochemical; conditions: for solubility thermodynamic at 24 h: buffer, 22 °C, thermodynamic from solid; for HPLC Conc: ca. 22° C.
Procedure: Thermodynamic Solubility Studies were carried out as follows: • Approximately 10 mg of Formula I free base Pattern 1 and L-tartrate Pattern 1, were weighed into a 1.5 mL screw-cap vial. The appropriate buffer system was added to create a slurry and the vials were shaken at ambient temperature (ca. 22° C.) for approximately 24 hours. • After this time, the slurries were transferred to centrifuge tubes containing nylon filters (0.22 μm) and filtered using a centrifuge for ca. 10 minutes. The isolated solids were then analyzed by XRPD and the filtrates measured by a pH meter and analyzed by HPLC for concentration.

[5] = Salt disproportionation studies; assay type: physicochemical
Procedure: Salt disproportionation studies were carried out as follows: • Approximately 10-20 mg of Formula I free base, L-tartrate Pattern 1 were weighed into HPLC vials. • 1 mL deionized water was then added to each vial and the vials capped and shaken at ambient temperature for 24 hours. • After this time, the samples were transferred to centrifuge tubes with nylon filters (0.22 μm) and centrifuged for approximately 15 minutes. The isolated solids were analyzed by XRPD and the filtrates analyzed by HPLC for concentration determination and the pH of all the filtrates were measured with a pH meter.

[6] = PO 20 mg/kg (free base equivalent), mean ± SD, n = 3, 20 mg/kg

COc1cc(C2CCN(C)CC2)ccc1Nc1ncc(C(F)(F)F)c(CCc2ccccc2CC(N)=O)n1 [Formula I]
% Dose in urine (unchanged Formula I) ([1]; pooled urine up to 24 h): 1.14% | half-life ([1]; male, Sprague Dawley, plasma, mean of n = 2, read-out: Apparent t1/2 (converted)): 4.8 h | AUC(0-inf) ([1]; male, Sprague Dawley, plasma, mean of n = 2, read-out: Plasma AUC0-inf): 4.57 µM·h

COc1cc(C2CCN(C)CC2)ccc1Nc1ncc(C(F)(F)F)c(CCc2ccccc2CC(N)=O)n1 [Free base]
BA [2, 6]: 48.6 ± 9.2% | Tmax [2, 6]: 5.0 ± 0.0 h | Adverse reactions or compound-related side effects ([2]; PO 20 mg/kg, 48 h sampling period): No adverse reactions or compound-related side effects were observed | % Dose in urine (unchanged Formula I) ([2]; PO 20 mg/kg, pooled urine up to 48 h, 20 mg/kg): 0.208 ± 0.24% | Cmax ([2]; male, Sprague Dawley, plasma, po, 20 mg/kg, PO 20 mg/kg (free base equivalent), mean ± SD, n = 3): 934 ± 260 nM | half-life ([2]; male, Sprague Dawley, plasma, po, 20 mg/kg, PO 20 mg/kg (free base equivalent), mean ± SD, n = 3, read-out: Apparent t1/2 (converted)): 5.6 ± 0.1 h | AUC(0-inf) ([2]; male, Sprague Dawley, plasma, po, 20 mg/kg, PO 20 mg/kg (free base equivalent), mean ± SD, n = 3, read-out: Plasma AUC0-inf): 9.93 ± 1.9 µM·h | Tmax ([2]; male, Sprague Dawley, plasma, po, 20 mg/kg, PO 20 mg/kg (free base equivalent), mean ± SD, n = 3, read-out: Tmax): 5 to 7 h | N-demethylation metabolite of Formula I ([2]; plasma and urine after PO 20 mg/kg, not quantified): detected in plasma and urine | Hygroscopicity, mass uptake (DVS/GVS) [3]: Uptake of 5 wt % | Thermodynamic Solubility ([4]; Water): <100 µg/mL | pH Post-24 h Slurry ([4]; Water): 5.63 | solubility thermodynamic at 24 h ([4]; pH 1, simulated gastric fluid, pH 1.0): 300 µg/mL (≈ 569 µM) | solubility thermodynamic at 24 h ([4]; pH 6.8, aqueous buffer, pH 6.8): < 100 µg/mL | pH Post-24 h Slurry ([4]; pH 1.0): 1.37 | HPLC Conc ([4]; pH 1.0, 24 h slurry): 0.3 mg/mL | XRPD Result ([4]; pH 1.0, solid after 24 h slurry, listed as Free Base): Possible HCl Salt | XRPD Result ([4]; pH 1.0, solid after 24 h slurry, listed as free base): possible HCl salt | Thermodynamic Solubility ([4]; pH 4.5): 11900 µg/mL | pH Post-24 h Slurry ([4]; pH 4.5): 5.60 | HPLC Conc ([4]; pH 4.5, 24 h slurry): 11.9 mg/mL | HPLC Conc ([4]; pH 4.5, 24 h slurry, listed as Formula I free base): 11.9 mg/mL | XRPD Result ([4]; pH 4.5, solid after 24 h slurry): Free Base | pH Post-24 h Slurry ([4]; pH 6.8): 7.44 | HPLC Conc ([4]; pH 6.8, 24 h slurry, listed as Free Base): <0.1 mg/mL | HPLC Conc ([4]; pH 6.8, 24 h slurry, listed as free base): < 0.1 mg/mL | XRPD Result ([4]; pH 6.8, solid after 24 h slurry): Alternate crystalline form | XRPD Result ([4]; pH 6.8, solid after 24 h slurry, listed as Formula I free base): change in XRPD pattern | HPLC Conc ([4]; water, 24 h slurry): <0.1 mg/mL | HPLC Conc ([4]; water, 24 h slurry, listed as Formula I free base): < 0.1 mg/mL | XRPD Result ([4]; water, solid after 24 h slurry): Free Base | Water pH Post-24 h ([5]; deionized water, 24 h, ambient temperature): 5.63 | XRPD Result ([5]; solid after 24 h in deionized water): Free Base
